Test results as given in the supplement of paper PMC10307832.

Assays:
Test in all cases: relative viability (nuclei count vs DMSO), 5 days (fraction); higher = more cells survive
Cediranib = compound: COc1cc2c(Oc3ccc4[nH]c(C)cc4c3F)ncnc2cc1OCCCN1CCCC1 [Cediranib]
Summary of the method: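 Lung cancer cell lines in 1536-well plates were kept overnight at 37 °C, then pinned with five library-drug doses (not always all listed) spaced by √10 on vehicle-anchored plates. After 5 days without medium change, cells were fixed, permeabilised and Hoechst-stained in one step, imaged at 4×, and nuclei were counted with MetaXpress. Viability is treated-well nuclei divided by vehicle-well nuclei, taken as the median over plates. Plates passed only with control CV below 25% and at least one doubling.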

Cediranib + Olaparib = compound: COc1cc2c(Oc3ccc4[nH]c(C)cc4c3F)ncnc2cc1OCCCN1CCCC1 [Cediranib] + O=C(c1cc(Cc2n[nH]c(=O)c3ccccc23)ccc1F)N1CCN(C(=O)C2CC2)CC1 [Olaparib] (partner 8 µM)
Summary of the method: (§1)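 One day after seeding in 1536-well plates, lung cancer cell lines were dosed by pin tool. Dosing was either single-drug or a fixed anchor-drug dose plus five library-drug doses (not always all listed) in √10 steps. After 5 days, nuclei were stained in one fix-and-stain step and counted on 4× images, and relative viability is the nuclei count of treated wells over that of vehicle wells, given as the median of duplicate plates.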

[1] = compound: O=C(C[C@H]1NCCC[C@@H]1O)Cn1cnc2cc(Br)c(Cl)cc2c1=O (racemic) [Halofuginone] + CS(=O)(=O)N1CCN(Cc2cc3nc(-c4cccc5[nH]ncc45)nc(N4CCOCC4)c3s2)CC1 [Pictilisib] (partner 1 µM)
Summary of the method: as §1

[2] = compound: O=C(C[C@H]1NCCC[C@@H]1O)Cn1cnc2cc(Br)c(Cl)cc2c1=O (racemic) [Halofuginone] + Cc1cc(Nc2cc(N3CCN(C)CC3)nc(Sc3ccc(NC(=O)C4CC4)cc3)n2)n[nH]1 [Tozasertib] (partner 0.1 µM)
Summary of the method: as §1

| Cell Line | relative viability (Cediranib; 0.04 µM) | relative viability (Cediranib; 0.1265 µM) | relative viability (Cediranib; 0.4 µM) | relative viability (Cediranib; 1.265 µM) | relative viability (Cediranib; 4 µM) | relative viability (Cediranib + Olaparib; first compound 0.04 µM) | relative viability (Cediranib + Olaparib; first compound 0.1265 µM) | relative viability (Cediranib + Olaparib; first compound 0.4 µM) | relative viability (Cediranib + Olaparib; first compound 1.265 µM) | relative viability (Cediranib + Olaparib; first compound 4 µM) | relative viability ([1]; first compound 0.001 µM) | relative viability ([1]; first compound 0.003162 µM) | relative viability ([1]; first compound 0.01 µM) | relative viability ([1]; first compound 0.03162 µM) | relative viability ([1]; first compound 0.1 µM) | relative viability ([2]; first compound 0.001 µM) | relative viability ([2]; first compound 0.003162 µM) | relative viability ([2]; first compound 0.01 µM) | relative viability ([2]; first compound 0.03162 µM) | relative viability ([2]; first compound 0.1 µM) |
| --- | --- | --- | --- | --- | --- | --- | --- | --- | --- | --- | --- | --- | --- | --- | --- | --- | --- | --- | --- | --- |
| 201T | 1.04 | 1.1 | 0.911 | 0.956 | 0.974 | 0.805 | 0.862 | 0.808 | 0.829 | 0.828 | 0.708 | 0.647 | 0.666 | 0.597 | 0.516 | 1 | 0.813 | 0.995 | 0.779 | 0.548 |
| A549 | 0.929 | 0.953 | 0.889 | 0.897 | 0.996 | 0.353 | 0.23 | 0.302 | 0.333 | 0.473 | 0.569 | 0.547 | 0.53 | 0.347 | 0.0767 | – | – | – | – | – |
| A-427 | 1.01 | – | 0.951 | 0.943 | 1.07 | 0.802 | – | 0.668 | 0.67 | 0.753 | 0.683 | 0.749 | 0.73 | 0.756 | 0.66 | 0.186 | 0.225 | 0.224 | 0.198 | 0.192 |
| ABC-1 | 0.995 | 1.11 | 0.851 | 0.759 | 0.92 | 0.875 | 0.997 | 0.823 | 1.14 | 0.726 | 0.415 | 0.922 | 0.836 | 0.728 | 0.51 | 0.141 | 0.142 | 0.162 | 0.189 | 0.158 |
| BEN | 1.07 | 0.643 | 0.903 | 0.758 | 0.931 | 1.11 | 0.613 | 1.05 | 1.13 | 1.04 | 0.52 | 0.587 | 0.547 | 0.594 | 0.425 | 0.535 | 0.528 | 0.456 | 0.511 | 0.482 |
| CAL-12T | 1 | 0.974 | 0.937 | 1.01 | 1.01 | 0.815 | 0.646 | 0.647 | 0.74 | 0.786 | 0.691 | 0.277 | – | 0.468 | 0.323 | 0.354 | 0.279 | 0.352 | 0.305 | 0.262 |
| COR-L23 | 1.06 | 0.957 | 0.914 | 1 | 1.27 | 0.429 | 0.333 | 0.291 | 0.377 | 0.309 | 0.954 | 0.963 | 0.801 | 0.6 | 0.156 | 0.249 | 0.218 | 0.198 | 0.153 | 0.106 |
| COR-L 105 | 0.862 | 0.911 | 0.944 | 0.889 | 0.923 | 0.737 | 0.657 | 0.715 | 0.707 | 0.687 | 0.437 | 0.432 | 0.412 | 0.338 | 0.31 | 0.337 | 0.288 | 0.385 | 0.329 | 0.346 |
| Calu-6 | 0.982 | 1.03 | 0.977 | 1.04 | 1.03 | 0.592 | 0.566 | 0.599 | 0.582 | 0.56 | 0.968 | 0.873 | 0.849 | 0.327 | 0.11 | – | – | – | – | – |
| ChaGo-K-1 | 0.965 | 0.733 | 0.952 | 1.1 | 0.997 | 0.403 | 0.307 | 0.403 | 0.424 | 0.41 | 0.587 | 0.397 | 0.683 | 0.669 | 0.776 | 0.256 | 0.205 | 0.261 | 0.222 | 0.208 |
| EBC-1 | 0.999 | 0.946 | 0.971 | 1.01 | 1.19 | 0.715 | 0.744 | 0.668 | 0.786 | 0.88 | 0.441 | 0.31 | 0.263 | 0.195 | 0.101 | – | – | – | – | – |
| EKVX | 1.05 | 0.929 | 0.888 | 0.844 | 1.03 | 0.783 | 0.949 | 0.803 | – | 0.851 | 0.442 | 0.442 | 0.443 | 0.469 | 0.354 | 0.432 | 0.377 | 0.352 | 0.354 | 0.349 |
| EMC-BAC-2 | 0.957 | 0.753 | 0.913 | 0.933 | 1.09 | 0.474 | – | 0.476 | 0.502 | 0.402 | 0.491 | 0.55 | 0.489 | 0.54 | 0.46 | 0.329 | 0.248 | 0.276 | 0.242 | 0.162 |
| EPLC-272H | 0.77 | – | 0.915 | 0.792 | 0.975 | 0.896 | 0.831 | 0.8 | 0.964 | 0.688 | 0.324 | 0.306 | 0.338 | 0.352 | 0.325 | 0.241 | 0.333 | 0.318 | 0.279 | 0.247 |
| H3255 | 1.1 | 0.859 | 0.964 | 0.938 | 0.986 | 0.524 | 0.503 | 0.564 | 0.643 | 0.542 | 0.472 | 0.482 | 0.437 | 0.394 | 0.447 | 0.709 | 0.524 | 0.723 | 0.67 | 0.618 |
| HARA | 0.908 | 1.01 | 0.878 | 1.05 | 1.01 | 0.626 | 1.22 | 0.675 | 1.01 | 0.692 | 0.556 | 0.461 | 0.402 | 0.436 | 0.235 | 0.116 | 0.118 | 0.105 | 0.105 | 0.0853 |
| HCC-15 | 1.03 | – | 0.948 | 1.08 | 1 | 0.706 | – | 0.705 | 0.759 | 0.759 | 0.721 | 0.852 | 0.7 | 0.857 | 0.673 | 0.47 | 0.461 | 0.394 | 0.43 | 0.239 |
